According to ChEMBL document CHEMBL1201862, “PubChem BioAssay data set” (2004):
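Five concentrations, 48 hours, 96-well plates. Here, GI50 denotes the concentration required for 50% inhibition of growth.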 Active and inactive are the calls of the source. No stated cut-off is given here; in the data, active = GI50 up to about 1.1 µM and inactive = higher.

Key:
Assay in all cases: NCI tumour cell line growth inhibition, 48 h
[1] = tested on: 786-0
[2] = tested on: A498
[3] = tested on: A549
[4] = tested on: ACHN
[5] = tested on: CAKI-1
[6] = tested on: CCRF-CEM
[7] = tested on: COLO 205
[8] = tested on: DLD-1
[9] = tested on: DMS-114
[10] = tested on: DMS-273
[11] = tested on: EKVX
[12] = tested on: HCC 2998
[13] = tested on: HCT-15
[14] = tested on: HL-60
[15] = tested on: HOP-18
[16] = tested on: HOP-62
[17] = tested on: HOP-92
[18] = tested on: HT-29
[19] = tested on: IGROV-1
[20] = tested on: K562
[21] = tested on: KM-20L2
[22] = tested on: KM12
[23] = tested on: LOX IMVI
[24] = tested on: LXFL 529
[25] = tested on: M14
[26] = tested on: M19-MEL
[27] = tested on: MOLT-4
[28] = tested on: Malme-3M
[29] = tested on: NCI-H226
[30] = tested on: NCI-H23
[31] = tested on: NCI-H460
[32] = tested on: NCI-H522
[33] = tested on: OVCAR-3
[34] = tested on: OVCAR-4
[35] = tested on: OVCAR-5
[36] = tested on: RPMI-8226
[37] = tested on: RXF 631
[38] = tested on: SF-268
[39] = tested on: SF-295
[40] = tested on: SF-539
[41] = tested on: SK-MEL-28
[42] = tested on: SK-MEL-2
[43] = tested on: SK-MEL-5
[44] = tested on: SK-OV-3
[45] = tested on: SNB-19
[46] = tested on: SNB-78
[47] = tested on: SW-620
[48] = tested on: TK-10
[49] = tested on: U-251
[50] = tested on: UACC-257
[51] = tested on: UACC-62
[52] = tested on: UO-31
[53] = tested on: XF498

Compound: COc1ccc2c(c1)CCCN2CCCCCCCCCCN(CCC(C)C)CCC(C)C
- GI50 [1]: 14.2 µM (inactive)
- GI50 [2]: 16.7 µM (inactive)
- GI50 [3]: 11.7 µM (inactive)
- GI50 [4]: 10.9 µM (inactive)
- GI50 [5]: 14.7 µM (inactive)
- GI50 [6]: 7.29 µM (inactive)
- GI50 [7]: 12.1 µM (inactive)
- GI50 [8]: 10.5 µM (inactive)
- GI50 [9]: 4.97 µM (inactive)
- GI50 [10]: 10.1 µM (inactive)
- GI50 [11]: 6.44 µM (inactive)
- GI50 [12]: 6.98 µM (inactive)
- GI50 [13]: 8.34 µM
- GI50 [14]: 2.9 µM (inactive)
- GI50 [15]: 12.1 µM (inactive)
- GI50 [16]: 13.1 µM (inactive)
- GI50 [17]: 4.34 µM (inactive)
- GI50 [18]: 4.65 µM (inactive)
- GI50 [19]: 12.2 µM (inactive)
- GI50 [20]: 4.24 µM (inactive)
- GI50 [21]: 10.2 µM (inactive)
- GI50 [22]: 4.55 µM (inactive)
- GI50 [23]: 12.4 µM (inactive)
- GI50 [24]: 10.2 µM (inactive)
- GI50 [25]: 13.3 µM (inactive)
- GI50 [26]: 15.3 µM (inactive)
- GI50 [27]: 5.58 µM (inactive)
- GI50 [28]: 13.4 µM (inactive)
- GI50 [29]: 14 µM (inactive)
- GI50 [30]: 3.25 µM (inactive)
- GI50 [31]: 11.2 µM (inactive)
- GI50 [32]: 2.2 µM (inactive)
- GI50 [33]: 4.79 µM (inactive)
- GI50 [34]: 5.61 µM (inactive)
- GI50 [35]: 14.9 µM (inactive)
- GI50 [36]: 2.26 µM (inactive)
- GI50 [37]: 8.87 µM (inactive)
- GI50 [38]: 11.6 µM (inactive)
- GI50 [39]: 14.1 µM (inactive)
- GI50 [40]: 3.39 µM (inactive)
- GI50 [41]: 13.6 µM (inactive)
- GI50 [42]: 9.4 µM (inactive)
- GI50 [43]: 6.46 µM (inactive)
- GI50 [44]: 19.3 µM (inactive)
- GI50 [45]: 13.9 µM (inactive)
- GI50 [46]: 16.8 µM (inactive)
- GI50 [47]: 12.6 µM (inactive)
- GI50 [48]: 16.4 µM (inactive)
- GI50 [49]: 13.2 µM (inactive)
- GI50 [50]: 14.9 µM (inactive)
- GI50 [51]: 12.2 µM (inactive)
- GI50 [52]: 3.11 µM (inactive)
- GI50 [53]: 7.89 µM (inactive)
